Measured values reported in patent US20230126310A1 (priority 2020, published 2023).
Like-named read-outs stand apart in the source and are kept apart here.

Tests used:
CaCo-2 cells = assay: Compound cytotoxicity against CaCo-2 cells at 48 hours; assay type: cell-based, Human; settings: read-out: CC50: concentration of 50% cytotoxicity; Table 5, further results of Examples 1 and 2; mean ± spread
Experimental: The cytotoxicity of the profiled compounds towards CaCo-2 cells at 48 hours was assessed. […] After 48 hours, cytotoxicity was evaluated using both digital phase contrast readout as described above and ATP determination (Cell titre-glo, Promega Corp).

SARS-CoV-2 = settings: for % Inh. (% Inhibition of SARS-CoV-2): 10 µM
[1] = system: SARS-CoV-2 (BetaCov/Belgium/GHB-03021/2020); assay: microbe, parasite or virus in culture; assay type: cell-based
[2] = Table 5, further results of Examples 1 and 2
[3] = read-out: IC50: concentration of 50% inhibition of virus infection, Table 5, further results of Examples 1 and 2, […]

Compound: Cc1nn(C)c2nc(NNC(=O)Nc3cc(Cl)nc(Cl)c3)cc(C(C)C)c12 [JTE-013]
- CC50 (CaCo-2 cells): 16.4 ± 0.42 µM
- IC50 (SARS-CoV-2): 3.66 µM
- pIC50 (SARS-CoV-2): 5.44
- % Inh. (% Inhibition of SARS-CoV-2) (SARS-CoV-2): 105.9%
- pIC50: -log10 of IC50 (SARS-CoV-2; [2]): 5.22
- IC50 (SARS-CoV-2; [3]): 5.97 ± 0.15 µM

Compound: polidocanol
- CC50 (CaCo-2 cells): 10.3 ± 1.62 µM
- pIC50 (SARS-CoV-2): 6.68
- % Inh. (% Inhibition of SARS-CoV-2) (SARS-CoV-2): 85.8%
- pIC50: -log10 of IC50 (SARS-CoV-2; [2]): 6.66
- IC50 (SARS-CoV-2; [3]): 0.22 ± 0.02 µM

Compound: CC(C)(C)c1ccc(/C=C/C(=O)Nc2ccc3c(c2)OCCO3)cc1 [AMG-9810]
- CC50 (CaCo-2 cells): 14.2 ± 17.9 µM
- % Inh. (% Inhibition of SARS-CoV-2) (SARS-CoV-2): 93.7%

Compound: Nc1nccc(-c2c(-c3ccc(F)cc3)ncn2C2CCCCC2)n1 [PF-670462]
- CC50 (CaCo-2 cells): 8.24 ± 7.87 µM
- % Inh. (% Inhibition of SARS-CoV-2) (SARS-CoV-2): 111.6%

Compound: CCOC(=O)c1ncc2[nH]c3ccc(OCc4ccccc4)cc3c2c1COC.Cl [ZK-93423]
- CC50 (CaCo-2 cells): 0.91 ± 0.13 µM
- IC50 (SARS-CoV-2): 1.28 µM
- pIC50 (SARS-CoV-2): 5.89
- % Inh. (% Inhibition of SARS-CoV-2) (SARS-CoV-2): 75.1%
- pIC50: -log10 of IC50 (SARS-CoV-2; [2]): 5.87
- IC50 (SARS-CoV-2; [3]): 1.34 ± 0.92 µM

Compound: NC(=NC1C2CC3CC(C2)CC1C3)Nc1ccc(I)cc1 (stereo not shown) [IPAG]
- CC50 (CaCo-2 cells): 11.5 ± 9.83 µM
- % Inh. (% Inhibition of SARS-CoV-2) (SARS-CoV-2): 180.5%
- pIC50: -log10 of IC50 (SARS-CoV-2; [2]): 5.22
- IC50 (SARS-CoV-2; [3]): 5.96 ± 0.57 µM
- Maximum confluence reached (%) [1]: 81.85%

Compound: C/C(=N\NC(=S)N1CCC1)c1ccccn1 [NSC319726]
- CC50 (CaCo-2 cells): < 0.02 µM
- pIC50 (SARS-CoV-2): 8.00
- % Inh. (% Inhibition of SARS-CoV-2) (SARS-CoV-2): 104.2%
- pIC50: -log10 of IC50 (SARS-CoV-2; [2]): > 7.70
- IC50 (SARS-CoV-2; [3]): < 0.02 µM
